Reference: patent publication US12624044B2, “SMARCA degraders and uses thereof” (Kymera Therapeutics, Inc., priority 2019, dated 2026)

Target: SMARCA2 (Homo sapiens, UniProt P51531)
Assay: MSD SMARCA2 degradation in NCI-H1299 cell line (24 h)
Type: cell-based
Set-up: HC: NCI-H1299 cells treated with DMSO; host or cells: NCI-H1299
Conditions: for Dmax: NCI-H1299, NCI-H1299 cells; for DC50: NCI-H1299 cells, read-out: SMARCA2 MSD H1299 degradation 24 h: External Abs-DC50
Procedure, shortened: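 NCI-H1299 cells treated 24 h with a 3-fold, 9-point compound dilution series, then lysed in RIPA with protease inhibitor. SMARCA2 in lysate-coated MSD plates detected with rabbit anti-SMARCA2 (0.3 ug/ml) and SULFO-TAG secondary. Relative SMARCA2 level normalized between DMSO-treated H1299 cells and SMARCA2-negative A2780 cells; Dmax % binned A–D.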

Sequence of SMARCA2 (P51531 whole entry): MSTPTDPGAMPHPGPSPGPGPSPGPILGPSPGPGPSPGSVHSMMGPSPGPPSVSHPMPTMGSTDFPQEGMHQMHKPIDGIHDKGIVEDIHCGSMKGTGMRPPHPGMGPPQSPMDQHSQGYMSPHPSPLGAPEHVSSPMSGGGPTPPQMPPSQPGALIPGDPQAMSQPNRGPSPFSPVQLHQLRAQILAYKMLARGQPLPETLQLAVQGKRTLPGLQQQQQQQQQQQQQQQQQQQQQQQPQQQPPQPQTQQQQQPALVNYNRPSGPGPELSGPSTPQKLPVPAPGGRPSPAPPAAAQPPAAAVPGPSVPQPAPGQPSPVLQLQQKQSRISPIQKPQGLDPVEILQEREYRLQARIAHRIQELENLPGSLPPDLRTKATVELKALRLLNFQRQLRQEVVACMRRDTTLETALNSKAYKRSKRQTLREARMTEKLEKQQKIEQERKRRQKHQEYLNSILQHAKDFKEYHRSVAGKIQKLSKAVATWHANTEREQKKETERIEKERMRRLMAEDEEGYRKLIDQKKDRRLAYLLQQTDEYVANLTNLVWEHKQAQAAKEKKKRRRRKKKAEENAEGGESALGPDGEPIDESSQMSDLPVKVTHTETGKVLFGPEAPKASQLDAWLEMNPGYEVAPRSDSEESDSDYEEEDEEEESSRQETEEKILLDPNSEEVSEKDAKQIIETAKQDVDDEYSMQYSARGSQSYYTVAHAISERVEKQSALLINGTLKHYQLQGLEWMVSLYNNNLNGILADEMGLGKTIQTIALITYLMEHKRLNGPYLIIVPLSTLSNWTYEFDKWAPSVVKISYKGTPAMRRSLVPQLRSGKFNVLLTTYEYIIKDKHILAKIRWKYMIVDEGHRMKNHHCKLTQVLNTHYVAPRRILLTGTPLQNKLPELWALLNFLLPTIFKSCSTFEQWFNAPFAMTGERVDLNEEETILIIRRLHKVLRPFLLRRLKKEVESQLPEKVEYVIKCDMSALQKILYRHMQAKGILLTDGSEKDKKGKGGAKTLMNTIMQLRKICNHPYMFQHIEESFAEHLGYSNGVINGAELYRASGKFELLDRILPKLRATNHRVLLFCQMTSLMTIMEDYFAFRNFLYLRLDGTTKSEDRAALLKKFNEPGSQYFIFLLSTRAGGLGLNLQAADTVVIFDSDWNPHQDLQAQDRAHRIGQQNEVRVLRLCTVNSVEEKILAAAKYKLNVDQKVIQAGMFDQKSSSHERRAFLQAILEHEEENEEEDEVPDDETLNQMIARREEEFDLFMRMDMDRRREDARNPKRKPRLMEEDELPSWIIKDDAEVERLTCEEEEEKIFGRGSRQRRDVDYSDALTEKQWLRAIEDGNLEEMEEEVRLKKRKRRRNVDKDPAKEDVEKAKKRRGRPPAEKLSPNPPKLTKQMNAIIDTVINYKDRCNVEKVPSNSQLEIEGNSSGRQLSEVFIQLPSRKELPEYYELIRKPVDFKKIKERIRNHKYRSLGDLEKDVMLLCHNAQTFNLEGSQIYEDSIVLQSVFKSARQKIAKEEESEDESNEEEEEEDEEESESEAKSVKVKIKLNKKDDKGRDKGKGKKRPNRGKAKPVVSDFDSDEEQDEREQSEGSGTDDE

SMILES | Dmax [%] | DC50 [nM]
Cn1c(=O)n(C2CCC(=O)NC2=O)c2cccc(CCCOc3ccc(CN4CCN(c5cc(-c6ccccc6O)nnc5N)CC4)cc3)c21 (stereo not shown) [I-90] | 50 to 70 | > 1000
Cn1c(=O)n(C2CCC(=O)NC2=O)c2cccc(CCCCOc3ccc(CN4CCN(c5cc(-c6ccccc6O)nnc5N)CC4)cc3)c21 (stereo not shown) [I-91] | < 50 | > 1000
Cn1c(=O)n(C2CCC(=O)NC2=O)c2cccc(CCCCCOc3ccc(CN4CCN(c5cc(-c6ccccc6O)nnc5N)CC4)cc3)c21 (stereo not shown) [I-92] | 50 to 70 | 100 to 500
Cn1c(=O)n(C2CCC(=O)NC2=O)c2cccc(CCCCCCOc3ccc(CN4CCN(c5cc(-c6ccccc6O)nnc5N)CC4)cc3)c21 (stereo not shown) [I-93] | < 50 | > 1000
Cn1c(=O)n(C2CCC(=O)NC2=O)c2cccc(CCCCCCCOc3ccc(CN4CCN(c5cc(-c6ccccc6O)nnc5N)CC4)cc3)c21 (stereo not shown) [I-94] | 50 to 70 | > 1000
Cn1c(=O)n(C2CCC(=O)NC2=O)c2ccc(CCCOCCN3CCN(Cc4ccc(-c5cc(-c6ccccc6O)nnc5N)cc4)CC3)cc21 (stereo not shown) [I-105, 3-[5-[3-[2-[4-[[4-[3-amino-6-(2-hydroxyphenyl)pyridazin-4-yl]phenyl]methyl]piperazin-1-yl]ethoxy]propyl]-3-methyl-2-oxo-benzimidazol-1-yl]piperidine-2,6-dione] | < 50 | > 1000
Cn1c(=O)n(C2CCC(=O)NC2=O)c2cccc(CCCOCCN3CCN(Cc4ccc(-c5cc(-c6ccccc6O)nnc5N)cc4)CC3)c21 (stereo not shown) [I-106] | 50 to 70 | 100 to 500
Cn1c(=O)n(C2CCC(=O)NC2=O)c2cccc(CCCOCCOCCN3CCN(Cc4ccc(-c5cc(-c6ccccc6O)nnc5N)cc4)CC3)c21 (stereo not shown) [I-107] | 50 to 70 | 100 to 500
Cn1c(=O)n(C2CCC(=O)NC2=O)c2cccc(CCCOCCOCCOCCN3CCN(Cc4ccc(-c5cc(-c6ccccc6O)nnc5N)cc4)CC3)c21 (stereo not shown) [I-108] | < 50 | > 1000
CN(Cc1ccc(N2CCN(c3cc(-c4ccccc4O)nnc3N)CC2)cc1)C1CCN(Cc2cccc3c2n(C)c(=O)n3C2CCC(=O)NC2=O)CC1 (stereo not shown) [I-109] | 70 to 90 | 100 to 500

Now from value to compound:

Dmax [%] | DC50 [nM] | SMILES
< 50 | > 1000 | Cn1c(=O)n(C2CCC(=O)NC2=O)c2cccc(CCCOc3cccc(CN4CCN(c5cc(-c6ccccc6O)nnc5N)CC4)c3)c21 (stereo not shown) [I-95]
50 to 70 | 100 to 500 | Cn1c(=O)n(C2CCC(=O)NC2=O)c2cccc(CCCCOc3cccc(CN4CCN(c5cc(-c6ccccc6O)nnc5N)CC4)c3)c21 (stereo not shown) [I-96]
50 to 70 | 100 to 500 | Cn1c(=O)n(C2CCC(=O)NC2=O)c2cccc(CCCCCOc3cccc(CN4CCN(c5cc(-c6ccccc6O)nnc5N)CC4)c3)c21 (stereo not shown) [I-97]
50 to 70 | 501 to 1000 | Cn1c(=O)n(C2CCC(=O)NC2=O)c2cccc(CCCCCCOc3cccc(CN4CCN(c5cc(-c6ccccc6O)nnc5N)CC4)c3)c21 (stereo not shown) [I-98]
< 50 | > 1000 | Cn1c(=O)n(C2CCC(=O)NC2=O)c2cccc(CCCCCCCOc3cccc(CN4CCN(c5cc(-c6ccccc6O)nnc5N)CC4)c3)c21 (stereo not shown) [I-99]
< 50 | > 1000 | Cn1c(=O)n(C2CCC(=O)NC2=O)c2ccc(CCCOc3cccc(CN4CCN(c5cc(-c6ccccc6O)nnc5N)CC4)c3)cc21 (stereo not shown) [I-100]
< 50 | > 1000 | Cn1c(=O)n(C2CCC(=O)NC2=O)c2ccc(CCCCOc3cccc(CN4CCN(c5cc(-c6ccccc6O)nnc5N)CC4)c3)cc21 (stereo not shown) [I-101]
< 50 | > 1000 | Cn1c(=O)n(C2CCC(=O)NC2=O)c2ccc(CCCCCOc3cccc(CN4CCN(c5cc(-c6ccccc6O)nnc5N)CC4)c3)cc21 (stereo not shown) [I-102]
< 50 | > 1000 | Cn1c(=O)n(C2CCC(=O)NC2=O)c2ccc(CCCCCCOc3cccc(CN4CCN(c5cc(-c6ccccc6O)nnc5N)CC4)c3)cc21 (stereo not shown) [I-103]
70 to 90 | 100 to 500 | Cn1c(=O)n(C2CCC(=O)NC2=O)c2ccc(CCCCCCCOc3cccc(CN4CCN(c5cc(-c6ccccc6O)nnc5N)CC4)c3)cc21 (stereo not shown) [I-104]
